Positions of bridges follow the written chain, without caps; N, C: chain ends. Residues, ends and D or L forms follow the SMILES beside them. *: point of attachment. X1 = O=C(CON=C[C@H](O)[C@H](O)[C@H](O)CF)*; AEEA = NCCOCCOCC(=O)O
Columns and labels:
[1] = Ex vivo gamma counting biodistribution in atherosclerotic mice; details: mouse, total radioactivity, LDLR^−/−ApoB^100/100 mice (n = 19), 25 min after injection, mean ± SD
Protocol: (§1) Six-month-old atherosclerotic low-density lipoprotein receptor-deficient mice (weight, 27 ± 4.1 g; n = 19) expressing only apolipoprotein B100 (LDLR^−/−ApoB^100/100, strain #003000; Jackson Laboratory, Bar Harbor, ME, USA) were fed for 4 months with a Western-type diet. Two-month-old C57BL/6N mice (weight, 24 ± 2.2 g; n = 13) fed with a regular chow served as controls.
(§2) In PET studies, mice (19 atherosclerotic, 13 controls) were injected with 14 ± 4.4 MBq of ^18F-FDR-Siglec-9. Twenty-five minutes after ^18F-FDR-Siglec-9 injection, blood was drawn by cardiac puncture and the animals were killed. The thoracic aorta was excised and rinsed in saline to remove the blood. In addition, various other tissues were excised and patted dry. Samples of blood and urine were collected, and blood plasma was separated by centrifugation. […] The results were expressed as % ID/g and target-to-background ratio.

[2] = system: atherosclerotic plaques in LDLR^−/−ApoB^100/100 mouse aorta; assay: Autoradiography of aortic cryosections of atherosclerotic mice; assay type: in vivo; details: LDLR^−/−ApoB^100/100 mice, n = 12, mean ± SD
Protocol: Autoradiography was used to study the distribution of radioactivity in the aorta in more detail, as described previously. After careful superimposition of the autoradiographs and H&E stained images, the count densities of 540 ROIs (185: plaques, 241: normal vessel walls, and 114: adventitia) were analyzed using Tina 2.1 software. The autoradiography results were calculated as the photostimulated luminescence per unit area (PSL/mm^2) normalized for injected radioactivity dose, and as ratios between the atherosclerotic plaque, normal vessel wall, and adventitia.

[3] = system: rats with skin/muscle inflammation (turpentine oil); assay type: in vivo, rat
Protocol: Rats were divided into two groups with Group 1 being intravenously (i.v.) given ^68Ga-DOTA-Siglec-9 (16 ± 2.9 MBq, n = 8) and Group 2 ^18F-FDR-Siglec-9 (18 ± 5.1 MBq, n = 8). A 60 min dynamic PET acquisition was performed on a High Resolution Research Tomograph (HRRT; Siemens Medical Solutions, Knoxville, TN, USA). The PET data were reconstructed into 5 × 60 s and 11 × 300 s frames using an ordered-subsets expectation maximization 3D algorithm (OSEM3D). Quantitative PET image analysis was performed by defining regions of interest (ROIs) within the inflamed area (on the left foreleg), control area (on the right foreleg), kidneys, lungs, heart, liver, and urinary bladder using […] 2.8 software (Turku PET Centre). Results were expressed as standardized uptake values (SUV) and time-activity curves. SUV was calculated as a ratio of tissue radioactivity concentration (Bq/mL) and given radioactivity dose (Bq) divided by animal's body weight.

[4] = system: rats with skin/muscle inflammation (turpentine oil); assay: Ex vivo gamma counting biodistribution in rats with skin/muscle inflammation; details: rats with skin/muscle inflammation, 60 min after injection, mean ± SD
From the text: (§3) Twenty-four hours before the PET studies, Sprague-Dawley rats (weight, 350 ± 22 g; n = 16) were subcutaneously injected with turpentine oil (Sigma-Aldrich) to induce focal acute, sterile inflammation [12]. Before the injection, rats were shaved on the both forelegs. Inflamed area on the left foreleg contained both skin and muscle. The intact, contralateral side (right foreleg) was used as a control.
(§4) After PET imaging, rats were sacrificed and various tissues were excised and weighed, and their radioactivity levels were measured with a gamma counter (1480 Wizard 3′′, PerkinElmer, Turku, Finland). The ex vivo biodistribution results were expressed as a percentage of the injected radioactivity dose per gram of tissue (% ID/g) and target-to-background ratio.

[5] = as above; details: Sprague-Dawley, rat, iv, total radioactivity; for tissue uptake at 1 h: Ex vivo biodistribution, rats with skin/muscle inflammation, i.v., 60 min after injection, gamma counting, mean ± SD
From the text: as §3, §4

[6] = Ex vivo gamma counting biodistribution in control mice; details: mouse, total radioactivity, C57BL/6N control mice (n = 13), 25 min after injection, mean ± SD
Protocol: as §1, §2

[7] = adipose tissue, WAT, 14 MBq, read-out: Ex vivo biodistribution, Adipose tissue, WAT
[8] = aorta, 14 MBq, read-out: Ex vivo biodistribution, Aorta
[9] = blood, 14 MBq, read-out: Ex vivo biodistribution, Blood
[10] = brain, 14 MBq, read-out: Ex vivo biodistribution, Brain
[11] = heart, 14 MBq, read-out: Ex vivo biodistribution, Heart
[12] = kidney, 14 MBq, read-out: Ex vivo biodistribution, Kidney
[13] = thymus, 14 MBq, read-out: Ex vivo biodistribution, Thymus
[14] = Sprague-Dawley rats, turpentine oil skin/muscle inflammation, i.v., dynamic PET 10–60 min, mean ± SD, SD

tissue uptake at 25 min ([1]; LDLR^−/−ApoB^100/100 (strain #003000), liver, read-out: Ex vivo biodistribution, Liver): 3 ± 0.97 %ID/g
tissue uptake at 25 min ([1]; LDLR^−/−ApoB^100/100 (strain #003000), lungs, read-out: Ex vivo biodistribution, Lungs): 2.4 ± 1.1 %ID/g
tissue uptake at 25 min ([1]; LDLR^−/−ApoB^100/100 (strain #003000), muscle, read-out: Ex vivo biodistribution, Muscle): 0.62 ± 0.2 %ID/g
tissue uptake at 25 min ([1]; LDLR^−/−ApoB^100/100 (strain #003000), pancreas, read-out: Ex vivo biodistribution, Pancreas): 0.82 ± 0.28 %ID/g
tissue uptake at 25 min ([1]; LDLR^−/−ApoB^100/100 (strain #003000), plasma, read-out: Ex vivo biodistribution, Plasma): 5.7 ± 1.4 %ID/g
tissue uptake at 25 min ([1]; LDLR^−/−ApoB^100/100 (strain #003000), small intestine, read-out: Ex vivo biodistribution, Small intestine): 1.6 ± 0.49 %ID/g
tissue uptake at 25 min ([1]; LDLR^−/−ApoB^100/100 (strain #003000), spleen, read-out: Ex vivo biodistribution, Spleen): 1.1 ± 0.28 %ID/g
tissue uptake at 25 min [1, 7]: 0.72 ± 0.66 %ID/g
tissue uptake at 25 min [1, 8]: 0.93 ± 0.38 %ID/g
tissue uptake at 25 min [1, 9]: 3.2 ± 0.82 %ID/g
tissue uptake at 25 min [1, 10]: 0.15 ± 0.06 %ID/g
tissue uptake at 25 min [1, 11]: 0.62 ± 0.28 %ID/g
tissue uptake at 25 min [1, 12]: 44 ± 26 %ID/g
tissue uptake at 25 min [1, 13]: 0.69 ± 0.19 %ID/g
excreta dose per gram or mL at 25 min ([1]; urine, 14 MBq): 470 ± 370 %ID/g
time of peak uptake in the inflamed area after the i.v. bolus injection ([3]; rat, in vivo, iv): about 10 min
tissue uptake at 1 h ([5]; adipose tissue, BAT, Adipose tissue, BAT): 0.049 ± 0.019 %ID/g
tissue uptake at 1 h ([5]; adipose tissue, WAT, Adipose tissue, WAT): 0.017 ± 0.0041 %ID/g
tissue uptake at 1 h ([5]; blood, Blood): 0.12 ± 0.023 %ID/g
tissue uptake at 1 h ([5]; bone (femoral), Bone (femoral)): 0.017 ± 0.01 %ID/g
tissue uptake at 1 h ([5]; bone marrow, Bone marrow): 0.056 ± 0.011 %ID/g
tissue uptake at 1 h ([5]; brain, Brain): 0.01 ± 0.003 %ID/g
tissue uptake at 1 h ([5]; control area (intact right foreleg), Control area): 0.11 ± 0.056 %ID/g
tissue uptake at 1 h ([5]; heart, Heart): 0.048 ± 0.01 %ID/g
tissue uptake at 1 h ([5]; inflamed area (left foreleg, skin and muscle), Inflamed area): 0.19 ± 0.053 %ID/g
tissue uptake at 1 h ([5]; kidneys, Kidneys): 14 ± 9.9 %ID/g
tissue uptake at 1 h ([5]; liver, Liver): 0.68 ± 0.12 %ID/g
tissue uptake at 1 h ([5]; lungs, Lungs): 0.11 ± 0.028 %ID/g
tissue uptake at 1 h ([5]; muscle, Muscle): 0.021 ± 0.0067 %ID/g
tissue uptake at 1 h ([5]; pancreas, Pancreas): 0.048 ± 0.011 %ID/g
tissue uptake at 1 h ([5]; plasma, Plasma): 0.23 ± 0.087 %ID/g
tissue uptake at 1 h ([5]; small intestine, Small intestine): 0.091 ± 0.029 %ID/g
tissue uptake at 1 h ([5]; spleen, Spleen): 0.06 ± 0.012 %ID/g
excreta dose per gram or mL at 1 h ([5]; urine, SD): 23 ± 14 %ID/g
tissue uptake at 1 h ([5]; male, testis, Testis): 0.046 ± 0.022 %ID/g
tissue uptake at 25 min ([6]; adipose tissue, BAT, 14 MBq, read-out: Ex vivo biodistribution, Adipose tissue, BAT): 0.45 ± 0.13 %ID/g
tissue uptake at 25 min [6, 7]: 0.63 ± 0.37 %ID/g
tissue uptake at 25 min [6, 8]: 0.52 ± 0.23 %ID/g
tissue uptake at 25 min [6, 9]: 2.1 ± 0.59 %ID/g
tissue uptake at 25 min [6, 10]: 0.11 ± 0.048 %ID/g
tissue uptake at 25 min [6, 11]: 0.34 ± 0.082 %ID/g
tissue uptake at 25 min [6, 12]: 43 ± 25 %ID/g
tissue uptake at 25 min ([6]; liver, read-out: Ex vivo biodistribution, Liver): 3.5 ± 2.3 %ID/g
tissue uptake at 25 min ([6]; lungs, read-out: Ex vivo biodistribution, Lungs): 1.5 ± 0.45 %ID/g
tissue uptake at 25 min ([6]; muscle, read-out: Ex vivo biodistribution, Muscle): 0.43 ± 0.13 %ID/g
tissue uptake at 25 min ([6]; pancreas, read-out: Ex vivo biodistribution, Pancreas): 0.57 ± 0.18 %ID/g
tissue uptake at 25 min ([6]; plasma, read-out: Ex vivo biodistribution, Plasma): 3.8 ± 0.62 %ID/g
tissue uptake at 25 min ([6]; small intestine, read-out: Ex vivo biodistribution, Small intestine): 0.79 ± 0.29 %ID/g
tissue uptake at 25 min ([6]; spleen, read-out: Ex vivo biodistribution, Spleen): 0.62 ± 0.32 %ID/g
tissue uptake at 25 min [6, 13]: 0.43 ± 0.089 %ID/g
excreta dose per gram or mL at 25 min ([6]; urine, 14 MBq): 610 ± 340 %ID/g
Structure (SMILES): CC(C)C[C@@H]1NC(=O)CNC(=O)[C@H](CCCNC(=N)N)NC(=O)[C@H](Cc2c[nH]c3ccccc23)NC(=O)[C@H](CO)NC(=O)[C@H](CC(C)C)NC(=O)[C@H](CO)NC(=O)[C@H](CC(C)C)NC(=O)[C@H](CCCNC(=N)N)NC(=O)[C@H](C)NC(=O)[C@@H](NC(=O)COCCOCCNC(=O)CON=C[C@H](O)[C@H](O)[C@H](O)CF)CSSC[C@@H](C(=O)N2CCC[C@H]2C(=O)N[C@@H](CO)C(=O)N[C@@H](CCCCN)C(=O)O)NC(=O)[C@H](CC(C)C)NC(=O)[C@H]([C@@H](C)O)NC1=O [^18F-FDR-Siglec-9] ({X1-AEEA}-CARLSLSWRGLTLCPSK-OH; disulfide 1-14; N-terminus and C-terminus assumed)
plaque-to-adventitia ratio [2]: 2.2 ± 0.53
plaque-to-healthy vessel wall ratio [2]: 1.9 ± 0.23
SUVmean,10–60 min in the inflamed area ([3]; Sprague-Dawley rats, turpentine oil skin/muscle inflammation, i.v., dynamic PET 10–60 min, mean ± SD, n = 5 (68Ga) or 8 (18F), SD): 0.77 ± 0.22
SUVmax,10–60 min in the inflamed area [3, 14]: 1.1 ± 0.097
inflammation-to-blood ratio 10–60 min (PET) [3, 14]: 1.7 ± 0.51
inflamed-to-control area ratio (ex vivo gamma counting) [4]: 2.0 ± 0.70
inflammation-to-blood ratio (ex vivo gamma counting) [4]: 1.3 ± 0.16

Reference: article PMC5804415, “Comparison of ^68Ga-DOTA-Siglec-9 and ^18F-Fluorodeoxyribose-Siglec-9: Inflammation Imaging and Radiation Dosimetry” (Contrast Media & Molecular Imaging, 2017)
